Results: the supplement of paper PMC11061612

Columns and labels:
Assay in all cases: combination Emax (second highest fraction inhibited in the dose matrix, 72 h); higher = more inhibition; extreme values may be limits of the assay
Hs-445 (Non-Cancerous) = tested on: Hs-445 (Non-Cancerous)
In short: (§1)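 Cell lines in DMEM/F12 or RPMI with 10% FBS were plated in 1536-well plates, held 24 hours at 37°C, 5% CO2, then given two-drug dose matrices for 72 hours (DMSO typically 0.2%). Viability was read by CellTiter-Glo 2.0 luminescence and scaled as inhibition from 0 (vehicle wells) to 1 (blank wells). Combination Emax is the second-highest inhibition in the matrix; Bliss excess is observed combination effect minus expected EA + EB − EA·EB, EA and EB being single-agent effects.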

[1] = tested on: NCI-H1693 (Lung Adenocarcinoma)
In short: as §1

A498 (Kidney Carcinoma) = tested on: A498 (Kidney Carcinoma)
In short: as §1

[2] = tested on: NCI-H2141 (Small Cell Lung Carcinoma)
In short: as §1

LN-405 (Glioblastoma) = tested on: LN-405 (Glioblastoma)
In short: as §1

[3] = tested on: ECC10 (Gastric Carcinoma)
In short: as §1

[4] = tested on: COLO-320-HSR (Colorectal Carcinoma)
In short: as §1

ARH-77 (Non-Cancerous) = tested on: ARH-77 (Non-Cancerous)
In short: as §1

IGR-37 (Melanoma) = tested on: IGR-37 (Melanoma)
In short: as §1

[5] = tested on: BICR22 (Oral Cavity Carcinoma)
In short: as §1

[6] = tested on: OS-RC-2 (Kidney Carcinoma)
In short: as §1

CAS-1 (Glioblastoma) = tested on: CAS-1 (Glioblastoma)
In short: as §1

[7] = tested on: SISO (Cervical Carcinoma)
In short: as §1

[8] = tested on: PANC-10-05 (Pancreatic Carcinoma)
In short: as §1

NY (Osteosarcoma) = tested on: NY (Osteosarcoma)
In short: as §1

[9] = tested on: SK-MES-1 (Squamous Cell Lung Carcinoma)
In short: as §1

[10] = tested on: SK-MG-1 (Low Grade Glioma)
In short: as §1

[11] = tested on: COR-L311 (Small Cell Lung Carcinoma)
In short: as §1

U-2-OS (Osteosarcoma) = tested on: U-2-OS (Osteosarcoma)
In short: as §1

[12] = tested on: NCI-H1666 (Lung Adenocarcinoma)
In short: as §1

Row | SMILES | combination Emax (Hs-445 (Non-Cancerous)) | combination Emax [1] | combination Emax (A498 (Kidney Carcinoma)) | combination Emax [2] | combination Emax (LN-405 (Glioblastoma)) | combination Emax [3] | combination Emax [4] | combination Emax (ARH-77 (Non-Cancerous)) | combination Emax (IGR-37 (Melanoma)) | combination Emax [5] | combination Emax [6] | combination Emax (CAS-1 (Glioblastoma)) | combination Emax [7] | combination Emax [8] | combination Emax (NY (Osteosarcoma)) | combination Emax [9] | combination Emax [10] | combination Emax [11] | combination Emax (U-2-OS (Osteosarcoma)) | combination Emax [12]
1 | Cc1c2c(nn1C)CSCc1cc(n(C)n1)CSc1cc(c3ccccc3c1)OCCCc1c(C(=O)O)n(C)c3c-2c(Cl)ccc13 [AZD5991] + C=CCn1c(=O)c2cnc(Nc3ccc(N4CCN(C)CC4)cc3)nc2n1-c1cccc(C(C)(C)O)n1 [AZD1775] (first compound max 1 µM, partner max 1 µM) | 1 | 0.386 | 0.602 | 0.652 | 0.55 | 0.858 | 0.801 | 0.995 | 0.768 | 0.717 | 0.303 | 0.852 | 0.663 | 0.573 | 0.747 | 0.593 | 0.783 | 0.812 | 0.809 | 0.338
2 | Cc1c2c(nn1C)CSCc1cc(n(C)n1)CSc1cc(c3ccccc3c1)OCCCc1c(C(=O)O)n(C)c3c-2c(Cl)ccc13 [AZD5991] + CC1(C)CCC(CN2CCN(c3ccc(C(=O)NS(=O)(=O)c4ccc(NCC5CCOCC5)c([N+](=O)[O-])c4)c(Oc4cnc5[nH]ccc5c4)c3)CC2)=C(c2ccc(Cl)cc2)C1 [Venetoclax] (first compound max 1 µM, 7x7, partner max 1 µM) | 0.962 | 0.143 | 0.361 | 0.659 | 0.425 | 1 | 0.841 | 0.859 | 0.282 | 0.727 | 0.133 | 0.286 | 0.151 | 0.188 | 0.729 | 0.146 | 0.178 | 0.938 | 0.271 | 0.242
3 | Cc1c2c(nn1C)CSCc1cc(n(C)n1)CSc1cc(c3ccccc3c1)OCCCc1c(C(=O)O)n(C)c3c-2c(Cl)ccc13 [AZD5991] + CCN(CCO)CCCOc1ccc2c(Nc3cc(CC(=O)Nc4cccc(F)c4)[nH]n3)ncnc2c1 [AZD2811] (first compound max 1 µM, 7x7, partner max 1 µM) | 0.968 | 0.211 | 0.352 | 0.428 | 0.437 | 0.957 | 0.827 | 0.904 | 0.24 | 0.675 | 0.21 | 0.705 | 0.808 | 0.303 | 0.48 | 0.408 | 0.465 | 0.906 | 0.307 | 0.334
4 | Cc1c2c(nn1C)CSCc1cc(n(C)n1)CSc1cc(c3ccccc3c1)OCCCc1c(C(=O)O)n(C)c3c-2c(Cl)ccc13 [AZD5991] + CN(C)CCCOc1ccc(-c2ccc3ncc4c(c3c2)n(C2CCOCC2)c(=O)n4C)cn1 [AZD0156] (first compound max 1 µM, 7x7, partner max 1 µM) | 0.949 | 0.211 | 0.392 | 0.265 | 0.376 | 0.66 | 0.888 | 0.867 | 0.282 | 0.323 | 0.25 | 0.532 | 0.201 | 0.334 | 0.399 | 0.196 | 0.539 | 0.433 | 0.263 | 0.238
5 | Cc1c2c(nn1C)CSCc1cc(n(C)n1)CSc1cc(c3ccccc3c1)OCCCc1c(C(=O)O)n(C)c3c-2c(Cl)ccc13 [AZD5991] + C[C@@H]1COCCN1C2=NC(=NC(=C2)C3(CC3)[S@](=N)(=O)C)C4=C5C=CNC5=NC=C4 [AZD6738] (first compound max 1 µM, 7x7, partner max 10 µM) | 1 | 0.432 | 0.621 | 0.628 | 0.668 | 0.766 | 0.97 | 0.976 | 0.848 | 0.846 | 0.363 | 0.877 | 0.607 | 0.488 | 0.805 | 0.785 | 0.566 | 0.752 | 0.599 | 0.322
6 | Cc1c2c(nn1C)CSCc1cc(n(C)n1)CSc1cc(c3ccccc3c1)OCCCc1c(C(=O)O)n(C)c3c-2c(Cl)ccc13 [AZD5991] + C[C@@H](Nc1cc(F)cc(F)c1)c1cc(C(=O)N(C)C)cc2c(=O)cc(N3CCOCC3)oc12 [AZD8186] (first compound max 1 µM, 7x7, partner max 3 µM) | 0.929 | 0.236 | 0.742 | 0.3 | 0.572 | 0.721 | 0.907 | 0.928 | 0.325 | 0.537 | 0.471 | 0.467 | 0.123 | 0.311 | 0.631 | 0.381 | 0.648 | 0.508 | 0.238 | 0.386
